Measurements from patent US20250082625A1, “NOVEL THERAPY” (priority 2016, published 2025).
Entries after “also recorded” stand apart in the source; their conditions may differ.

Test system: NK1R
Assay: Neuropeptide response in bladders of CY-17 infected Nlrp3^−/− mice treated with NK1R antagonist (immunohistochemistry, qRT-PCR)
Type: in vivo
Settings: for Nk1r expression (qRT-PCR) / Ppt-1 expression (qRT-PCR): 1 mg/kg i.p.
Text: Mice were bred and housed in the specific pathogen-free MIG animal facilities (Lund, Sweden) with free access to food and water. Female C57BL/6 mice or Il1b^−/−, Nlrp3^−/−, Asc^−/− mice were used for experiments at 9-15 weeks of age.
Tissues were embedded in O.C.T. compound (VWR) and 7-μm-thick fresh cryosections were mounted on positively charged microscope slides (Superfrost/Plus; Thermo Fisher Scientific) Sections were permeabilized (0.25% Triton X-100, 5% FBS), blocked (5% FBS) and stained: rabbit anti-NK1R (1:50, SC-15323, SantaCruz), rabbit anti-substance p (1:100, ORB11399, Biorbyt), rabbit anti-orexin receptor 2 (1:300, AB104701, Abcam), rabbit anti-GALR2 (1:50, AB136264, Abcam) or rabbit anti-TAS2R43 (1:100, AB65513, Abcam). Antibodies were appropriately labeled using goat anti-rabbit secondary antibodies conjugated to Alexa 488 (1:200 in 0.025% Triton X-100, 5% FBS) for 1 h in RT before nuclear counterstaining using Draq5 (1:1000, Abcam). Sections were imaged by laser scanning confocal microscopy (MSM510 META confocal microscope, Carl Zeiss) or by fluorescence microscopy (AX60, Olympus Optical).
Complementary DNA was reverse-transcribed from 0.2-1 μg of mice total RNA using SuperScript™ III First-Strand Synthesis System for RT-PCR (Invitrogen), and quantified in real time using primer pairs against Mus musculus Nk1r, Ppt-1^37 and Galr2 and QuantiTect® SYBR® Green PCR kits (Qiagen) on a Rotor Gene Q (Qiagen).
qRT-PCR reactions were run in technical duplicates and gene expression was analyzed based on ΔΔCT comparison to Mus musculus GAPDH.
The severity of acute cystitis after 24 hours or seven days was examined and neuropeptide expression and disease severity quantified by immunohistochemistry and qRT-PCR of whole bladder RNA extracts, using primers specific for NK1R, Ppt-1 or Galr2 as described above.

[1] = Nlrp3^−/− mice, CY-17 infection, SR140333 i.p. 1 mg/kg, vs untreated infected mice, 1 mg/kg

**Q.** With CC(C)Oc1cccc(CC(=O)N2CCC[C@](CC[N+]34CCC(c5ccccc5)(CC3)CC4)(c3ccc(Cl)c(Cl)c3)C2)c1.[Cl-] [SR140333, 1-[2-[(3S)-3-(3,4-Dichlorophenyl)-1-[2-[3-(1-methylethoxy)phenyl]acetyl]-3-piperidinyl]ethyl]-4-phenyl-1-azoniabicyclo[2.2.2]octane chloride] as the molecule, how does the “mucosal NK1R response to infection (NK1R staining)” value [1] read?
**A.** reduced; also recorded: Inhibition

**Q.** What about the “mucosal SP response to infection (SP staining)” value [1] of the same molecule?
**A.** reduced; also recorded: Attenuated

**Q.** And the “Galr2 expression (qRT-PCR)” value (either treatment (prophylactic or post-infection), p=0.19 and p=0.63)?
**A.** no significant effect; also recorded: not altered

**Q.** And the GALR2 staining (infected mice, n=4 mice per condition)?
**A.** does not effect

**Q.** What about the “Nk1r expression (qRT-PCR)” value (post-infection treatment, p<0.01) of the same molecule?
**A.** reduced

**Q.** And the “Ppt-1 expression (qRT-PCR)” value (post-infection treatment, p<0.01, 1 mg/kg)?
**A.** affected; also recorded: Inhibition

**Q.** What about the “Nk1r expression (qRT-PCR)” value (prophylactic treatment (pretreatment), p<0.05) of the same molecule?
**A.** reduced

**Q.** What about the “Ppt-1 expression (qRT-PCR)” value (prophylaxis (pretreatment), p=0.06) of the same molecule?
**A.** less efficient
